This passage reports pD2 and Intrinsic activity results from ChEMBL document CHEMBL1123455, “Conformational effects on the activity of drugs. 11. Stereostructural models for the direct activation of the alpha- and beta-adrenergic receptor” (J Med Chem, 1986).

Experiment [1] addresses T1, Adrenergic receptor beta (Homo sapiens) (UniProt P08588+P07550+P13945). The conditions noted are these: Cavia porcellus.
Description: Compound was tested for beta adrenergic receptor activity in isolated guinea pig atria
Experiment [2] has as its target T1, Adrenergic receptor beta (Homo sapiens). Particulars: Cavia porcellus. This is another data set of the same source.
Description: Compound was tested for beta adrenergic receptor activity in isolated guinea pig tracheal strip
The target of experiment [3] is T2, Adrenergic receptor alpha (Rattus norvegicus) (UniProt P15823+P23944+P43140+P22086+P19328+P22909). Kind of experiment: Intrinsic activity against alpha-adrenoceptor in isolated rat tail artery.
Experiment [4] concerns the target T2, Adrenergic receptor alpha (Rattus norvegicus). Kind of experiment: Intrinsic activity against alpha-adrenoceptor in isolated rat vas deferens. The class given is tissue-based.
Experiment [5] addresses T1, Adrenergic receptor beta (Homo sapiens). As to the kind of experiment: Intrinsic activity beta adrenergic receptor in isolated guinea pig tracheal strip. The conditions noted are these: Cavia porcellus; target entry is the homologue from another species.
In experiment [6] the target is T2, Adrenergic receptor alpha (Rattus norvegicus). The conditions noted are these: Artery.
Description: Compound was tested for alpha-adrenoceptor activity in isolated rat tail artery
Experiment [7] has the same target. Particulars: Vas deferens.
Description: Compound was tested for alpha-adrenoceptor activity in isolated rat vas deferens
In experiment [8] the target is T1, Adrenergic receptor beta (Homo sapiens). Particulars: Cavia porcellus. The source holds these as a separate data set.
Description: Compound was tested for beta-adrenoceptor activity in isolated guinea pig atria

In the case of `CC(C)N1CCOC(c2ccc(O)c(O)c2)C1` (centres undefined), the pD2 in experiment [1] amounted to 5.74; in experiment [2], 6.34.

`Oc1ccc(C2(O)CCCNC2)cc1O` (centres undefined): the Intrinsic activity in experiment [3] amounted to 1; in experiment [4], 0.95; in experiment [5], 0.77.

In the case of `Oc1ccc(C2CNCCO2)cc1O` (centres undefined), the Intrinsic activity in experiment [3] worked out at 0.92; in experiment [4], 0.91.

Turning to `NC[C@H](O)c1ccc(O)c(O)c1`, the Intrinsic activity in experiment [3] and in experiment [4] was 1 throughout. Besides, the pD2 in experiment [6] stood at 6.16; in experiment [7], 4.96; in experiment [2], 6.04; in experiment [8] it was 6.5.

For `CC(C)N1CCCC(O)(c2ccc(O)c(O)c2)C1` (centres undefined), the values for the pD2 in experiment [1] and in experiment [2] were 8.14 and 8.26, respectively.

Consider `CC(C)N[C@@H]1CCc2c(ccc(O)c2O)[C@H]1O`, for which the pD2 was 7.56 in experiment [1] and 8.41 in experiment [2].

With `NC1CCc2c(ccc(O)c2O)[C@H]1O` (some centres undefined), the figures for the pD2 in experiment [1] and in experiment [2] were 6.74 and 7.49, respectively.
